Experimental data published in patent US20160250285A1, “NEUROPROTECTIVE PEPTIDES” (priority 2013, published 2016).
“Also recorded” adds a separate entry of the source. Like-named read-outs stand apart in the source and are kept apart here.

Legend:
[1] = tested on: primary cortical neuronal cultures; details: for neuroprotection, peptide present during the 5 minute glutamic acid insult only: FIG. 28; for neuroprotection, 10 minute pre-exposure removed immediately prior to insult: FIG. 29, FIG. 14
[2] = tested on: primary cortical neuronal cultures; experiment: In vitro ischemia / oxygen-glucose deprivation (OGD) model, neurons; assay type: cell-based, rat; details: for neuroprotection when added for 15 minutes after OGD: FIGS. 31, 20, 22, 1 μM and 5 μM in FIG. 31; for neuroprotection when added post-in vitro ischemia/OGD: added after anaerobic incubation until experiment end (FIGS. 3b, 16, 17)
Procedure: Establishment of cortical cultures was as previously described (Meloni et al. 2001). Briefly, cortical tissue from E18-E19 Sprague-Dawley rats was dissociated in Dulbecco's modified Eagle medium (DMEM; Invitrogen, Australia) supplemented with 1.3 mM L-cysteine, 0.9 mM NaHCOa, 10 units/ml papain (Sigma, USA) and 50 units/ml DNase (Sigma) and washed in cold DMEM/10% horse serum. Neurons were resuspended in Neurobasal (Invitrogen) containing 2% B27 supplement (B27; Invitrogen). Before seeding, 96-well sized glass wells (6 mm diameter, ProTech, Australia) or 96-well plastic plates (ProSciTech, Australia) were coated with poly-D-lysine overnight (50 ml/well: 50 mg/mL; 70-150 K, Sigma). Excess poly-D-lysine solution was then removed and replaced with Neurobasal (containing 2% B27; 4% fetal bovine serum; 1% horse serum; 62.5 mM glutamate; 25 mM 2-mercaptoethanol; and 30 mg/mL streptomycin and 30 mg/mL penicillin). Neurons were plated to obtain ≈10,000 viable neurons for each well on day in vitro 11-12. Neuronal cultures were maintained in a CO2 incubator (5% CO2, 95% air balance, 98% humidity) at 37° C. On day in vitro 4 one third of the culture medium was removed and replaced with fresh Neurobasal/2% B27 containing the mitotic inhibitor, cytosine arabinofuraNOside (1 mM final concentration; Sigma). On day in vitro 8 one half of the culture medium was replaced with Neurobasal/2% B27. Cultures were used on day in vitro 11 or 12 after which time they routinely consist of >97% neurons and 1-3% astrocytes (Meloni et al. 2001).
The in vitro ischemia model used for primary cortical neuronal cultures was performed as previously described (Meloni et at 2011) Briefly, culture media was removed from wells (glass 96-well plate format) and washed with 315 μl of glucose free balanced salt solution (BSS; mM: 116 NaCl, 5.4 KCl, 1.8 CaCl2, 0.8 MgSO4, 1 NaH2PO4; pH 6.9) before the addition of 60 μl BSS containing cell penetrating or control peptides (see Table 1). A non-peptide positive control consisting of the glutamate receptor blockers (5 μM MK801/5 μM 6-cyano-7-nitroquinoxaline: MK801/CNQX) was also included. In vitro ischemia was initiated by placing wells in an anaerobic incubator (Don Whitely Scientific, England; atmosphere of 5% CO2, 10% H2 and 85% argon, 98% humidity) at 37° C. for 55 minutes. Upon removal from the anaerobic incubator, 60 μl of Neurobasal/2% N2 supplement was added to the wells and cultures incubated for a further 24 hours at 37° C. in the CO2 incubator. Control cultures received the same BSS wash procedures and media additions as ischemic treated cultures before incubation at 37° C. in the CO2 incubator.
Control cultures underwent the same BSS wash procedures and media additions as OGD treated cultures.
Twenty-four hours after insult, neuronal cultures were examined by light microscopy for qualitative assessment of neuronal cell viability. Neuronal viability was quantitatively measured by 3-(4,5,dimethyliazol-2-yl)-5-(3-carboxymethoxy-phenyl)-2-(4-sulfophenyl)-2H-tetrazolium salt (MTS) assay (Promega, Australia). The MTS assay measures the cellular conversion of the tetrazolium salt to a water-soluble brown formazan salt, which is detected spectrophotometrically at 490 nm. MTS absorbance data were converted to reflect proportional cell viability relative to both the untreated and treated controls, with the untreated control taken as 100% viability, and presented as mean±SEM. […] Viability data was analysed by ANOVA, followed by post-hoc Fischer's PLSD test, with P<0.05 values considered statistically significant. Four- to six wells were used in all assays.

[3] = tested on: brain endothelial cells (bEND3 cells); experiment: In vitro ischemia/OGD model, bEND3 cells; assay type: cell-based; details: peptide during/after ischemia (FIG. 3c) or 15 min before OGD (FIGS. 23, 24)
Procedure: The in vitro ischemia model was also used for bEND3 cells, SH-SY5Y cells, and astrocytes. For bEND3 cells anaerobic incubation was extended to 2-3 hours and upon removal from the anaerobic incubator, 60 μl of DMEM/2% FCS was added to wells. […] Upon removal from the anaerobic incubator, 60 μl of DMEM/2% FCS was added to wells.
Twenty-four hours after insult, neuronal cultures were examined by light microscopy for qualitative assessment of neuronal cell viability. Neuronal viability was quantitatively measured by 3-(4,5,dimethyliazol-2-yl)-5-(3-carboxymethoxy-phenyl)-2-(4-sulfophenyl)-2H-tetrazolium salt (MTS) assay (Promega, Australia). The MTS assay measures the cellular conversion of the tetrazolium salt to a water-soluble brown formazan salt, which is detected spectrophotometrically at 490 nm. MTS absorbance data were converted to reflect proportional cell viability relative to both the untreated and treated controls, with the untreated control taken as 100% viability, and presented as mean±SEM. For studies using astrocytes, bEND3, and SH-Y5Y cells, raw MTS data was used to generate graphs. Viability data was analysed by ANOVA, followed by post-hoc Fischer's PLSD test, with P<0.05 values considered statistically significant. Four- to six wells were used in all assays.

[4] = tested on: neuroblastoma cell line (SH-SY5Y); experiment: In vitro ischemia model, SH-SY5Y cells; assay type: cell-based; details: 5 μM during/2.5 μM post (FIG. 3c)
Procedure: A brain endothelial cell line (bEND3) and a neuroblastoma cell line (SH-SY5Y) were also used for some experiments. bEND3 and SH-SY5Y cells were cultured using standard techniques in DMEM plus 5 or 15% foetal calf serum. Rat primary astrocytes were obtained and cultured as described for cortical neurons except DMEM plus 10% foetal calf serum was used instead of Neurobasal/2% B27, and the mitotic inhibitor, cytosine arabinofuraNOside was not used.
The in vitro ischemia model was also used for bEND3 cells, SH-SY5Y cells, and astrocytes. For bEND3 cells anaerobic incubation was extended to 2-3 hours and upon removal from the anaerobic incubator, 60 μl of DMEM/2% FCS was added to wells. […]
Twenty-four hours after insult, neuronal cultures were examined by light microscopy for qualitative assessment of neuronal cell viability. Neuronal viability was quantitatively measured by 3-(4,5,dimethyliazol-2-yl)-5-(3-carboxymethoxy-phenyl)-2-(4-sulfophenyl)-2H-tetrazolium salt (MTS) assay (Promega, Australia). The MTS assay measures the cellular conversion of the tetrazolium salt to a water-soluble brown formazan salt, which is detected spectrophotometrically at 490 nm. MTS absorbance data were converted to reflect proportional cell viability relative to both the untreated and treated controls, with the untreated control taken as 100% viability, and presented as mean±SEM. […]

N=C(N)NCCC[C@H](NC(=O)[C@H](CCCNC(=N)N)NC(=O)[C@H](CCCNC(=N)N)NC(=O)[C@H](CCCNC(=N)N)NC(=O)[C@H](CCCNC(=N)N)NC(=O)[C@H](CCCNC(=N)N)NC(=O)[C@H](CCCNC(=N)N)NC(=O)[C@H](CCCNC(=N)N)NC(=O)[C@@H](N)CCCNC(=N)N)C(=O)O [Peptide R9]
neuroprotection when added 15 minutes post-insult ([1]; 15 min post-glutamic acid (FIG. 1d)): mildly effective
neuroprotection, peptide present during the 5 minute glutamic acid insult only [1]: effective
neuroprotection, 10 minute pre-exposure removed immediately prior to insult [1]: effective
fold more potent than TAT-D, based on IC50 values ([1]; glutamic acid model): 17 fold
MTS absorbance levels relative to baseline ([1]; normal neurons and following injury): increase MTS absorbance levels above baseline levels
IC50 ([1]; read-out: IC50: Glutamic acid model, Table 3, from dose response graph FIG. 1a, peptide 15 min prior to and during 100 μM glutamic acid (5 min), viability 24 h, MTS): 780 nM
IC50 ([1]; read-out: IC50: Glutamic acid model, Table 4, polyarginine peptides, from dose response graph FIG. 1e): 830 nM
neuroprotection when added for 15 minutes after OGD [2]: not
IC50 ([2]; Table 3, from FIG. 3a, peptide during ischemia and at 50% dose after, viability 24 h, MTS, read-out: IC50: In vitro ischemia model): 6000 nM
neuroprotection when added post-in vitro ischemia/OGD [2]: displayed neuroprotective effects; also recorded: effective
protection of bEND3 cells (cell death / viability after in vitro ischemia/OGD) [3]: reduced; also recorded: able to protect
protection of SH-SY5Y cells (cell death after in vitro ischemia) [4]: reduced; also recorded: able to protect

H-RRRRRRRRRRRRRRRRRR-OH [Peptide R18]
IC50 [1]: 240 nM
neuroprotective efficacy at the higher concentration ([1]; 5 μM, dose response study): reduced
neuroprotection, peptide present during the 5 minute glutamic acid insult only [1]: effective
neuroprotection, 10 minute pre-exposure removed immediately prior to insult [1]: effective
neuroprotection (neuronal viability) ([1]; peptide 15 min prior to and during glutamic acid exposure, viability 24 h, MTS): showed significant neuroprotection
efficacy at higher concentrations, added post-in vitro ischemia ([2]; FIG. 3b): reduced efficacy
neuroprotection, peptide for 10 minutes, 1 to 3 hours prior to OGD ([2]; FIG. 32): effective
neuroprotection when added for 15 minutes after OGD [2]: Neuroprotection is displayed
neuroprotection when added post-in vitro ischemia/OGD [2]: displayed neuroprotective effects; also recorded: effective
